Where two headings read alike, the source gives them in different places.

One test has as its system A-2 receptors. As to conditions: rank order; cited from earlier work.
For test [1], the target named is T1, Adenosine A-1 receptor (Rattus norvegicus, UniProt P25099).
T1 sequence (P25099 1-326): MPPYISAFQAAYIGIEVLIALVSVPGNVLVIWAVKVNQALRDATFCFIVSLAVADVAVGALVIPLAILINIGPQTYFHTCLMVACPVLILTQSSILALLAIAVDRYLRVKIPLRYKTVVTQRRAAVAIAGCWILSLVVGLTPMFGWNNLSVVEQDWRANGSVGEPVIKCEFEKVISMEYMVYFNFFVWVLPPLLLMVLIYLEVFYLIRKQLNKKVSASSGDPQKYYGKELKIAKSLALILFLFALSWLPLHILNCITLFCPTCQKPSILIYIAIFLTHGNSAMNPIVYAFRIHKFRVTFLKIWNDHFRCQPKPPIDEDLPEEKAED
The test can be described thus: Test for affinity for brain adenosine A-1 receptor binding sites ([3H]cyclohexyladenosine displacement). As to conditions: ratio of A-2 Ki to A-1 Ki.

For test [2], the system named is effects of adenosine analogs on heart rate and blood pressure. As to conditions: heart rate compared with blood pressure; cited from earlier work.
In another test the test system is A-1 receptors. As to conditions: cited from earlier work.
Test [3] concerns the target T1, Adenosine A-1 receptor.

As to `Nc1nc(Cl)nc2c1ncn2[C@@H]1O[C@H](CO)[C@@H](O)[C@H]1O` [2-chloroadenosine], the “order of potency at A-2 receptors” value in the test on A-2 receptors is given as “NECA>2-chloroadenosine>R-PIA>CHA”.

In the case of `CCCOC1=Nc2c(cnn2-c2ccccc2)C2=N[C@H](C)[C@@H](c3ccccc3)N12` [Compound 7, (2R-trans)-2,7-dihydro-2-methyl-3,7-diphenyl-5-propoxy-3H-Imidazo-[1,2-c]pyrazolo[4,3-s]pyrimidine], the “A-2 Ki/A-1 Ki” value on Adenosine A-1 receptor [1] amounted to 1.17.

Consider `CCCn1c(=O)c2[nH]c(-c3ccc(OCC(=O)NCCN)cc3)nc2n(CCC)c1=O` [XAC], for which the “antagonizing the effects of adenosine analogs on heart rate versus blood pressure” value in test [2] was “much more potent in antagonizing the effects of adenosine analogs on heart rate than on blood pressure”. For the same compound, the “higher affinity for A-1 adenosine receptors” value in the test on A-1 receptors (A-1 Ki compared with Ki at A-2 receptors of the brain slice assay) is on record as 40 fold.

For the compound `C1=Nc2c(ncn2-c2ccccc2)C2=N[C@H](Cc3ccccc3)CN12` [Compound 6, (R)-7,8-dihydro-3-phenyl-8-(phenylmethyl)-3H-diimidazo[1,2-c: 4',5'-e]pyrimidine], at Adenosine A-1 receptor [3], the “A-2 Ki/A-1 Ki” value is on record as 16.40.

In the case of `C1=Nc2c(cnn2-c2ccccc2)C2=N[C@H](Cc3ccccc3)CN12` [Compound 3, (R)-2,7-dihydro-7-phenyl-2-(phenylmethyl)-3H-imidazo-[1,2-c]pyrazolo-[4,3-e]pyrimidine], on Adenosine A-1 receptor [1], the “A-2 Ki/A-1 Ki” value stood at 13.20.

Turning to `CCNC(=O)[C@H]1O[C@@H](n2cnc3c(N)ncnc32)[C@H](O)[C@@H]1O` [NECA, N-5'-ethylcarboxamidoadenosine], the “order of potency at A-2 receptors” value in the test on A-2 receptors is “NECA>2-chloroadenosine>R-PIA>CHA”.

Turning to `CCCn1c(=O)c2[nH]c(-c3ccc(OCC(=O)O)cc3)nc2n(CCC)c1=O` [XCC], the adenosine receptor selectivity entry in the test on A-1 receptors (A-1 versus A-2, in vitro) is listed as “non-selective”.

These data come from patent US5086176A, “Tricyclic fused adenine derivatives” (priority 1991, dated 1992).
